Assays:
Assay type in all cases: cell-based, human
MDA-MB-435 cells [1] = experiment: Apoptosis by DAPI staining (Example 8); details: MDA-MB-435; 2% serum; DAPI staining at three day treatment
Procedure: (§1) MDA-MB-435 and MCF-7 cells at 1.5×10^5/well in 12 well plates for apoptosis and 1.5×10^4/well in 96 well plates for DNA synthesis arrest were incubated overnight in culture media and treated with α-tocopherol, α-tocotrinel, compound 1, 6-0-carboxymethyl alpha-tocotrienol (6-0-CM-α-T, 44), and vitamin E succinate (VES) at different concentrations in experimental media (2% serum for MDA-MB-435 cells and 5% serum for MCF-7 cells). DNA synthesis arrest was determined by ^3H-uptake at one day treatment and apoptosis was detected by DAPI staining at three day treatment. EC50 was calculated as the dosage of test compounds that gave 50% growth inhibition.

MCF-7 cells [2] = experiment: Apoptosis by DAPI staining (Example 8); details: 5% serum, DAPI staining at three day treatment
Procedure: as §1

Ramos = experiment: Bioassay for apoptosis (apoptotic EC50); details: unit not given
How it was run: (§2)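 Overnight-adhered cells were treated for 1–3 days with compounds at 0.01 to 20 μg/mL. Percent apoptosis was scored microscopically from DAPI-stained chromatin condensation/fragmentation and/or TUNEL detection of DNA 3′-OH ends.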

LnCaP = experiment: Bioassay for apoptosis (apoptotic EC50); details: unit not given, in µg/mL
How it was run: as §2

DU-145 = experiment: Bioassay for apoptosis (apoptotic EC50); details: unit not given, in µg/mL
How it was run: as §2

Myeloma = experiment: Bioassay for apoptosis (apoptotic EC50); details: unit not given
How it was run: as §2

ME-180 = experiment: Bioassay for apoptosis (apoptotic EC50); details: ME-180; unit not given; in µg/mL
How it was run: as §2

MDA-MB-231 = experiment: Bioassay for apoptosis (apoptotic EC50); details: MDA-MB-231; unit not given; in µg/mL
How it was run: as §2

Raji = experiment: Bioassay for apoptosis (apoptotic EC50); details: unit not given
How it was run: as §2

RL-95-2 = experiment: Bioassay for apoptosis (apoptotic EC50); details: RL-95-2; unit not given; in µg/mL
How it was run: as §2

PC-3 = experiment: Bioassay for apoptosis (apoptotic EC50); details: PC-3; unit not given; in µg/mL
How it was run: as §2

HL-60 = experiment: Bioassay for apoptosis (apoptotic EC50); details: HL-60; unit not given; in µg/mL
How it was run: as §2

HT-29 = experiment: Bioassay for apoptosis (apoptotic EC50); details: unit not given, in µg/mL
How it was run: as §2

DLD-1 = experiment: Bioassay for apoptosis (apoptotic EC50); details: unit not given, in µg/mL
How it was run: as §2

A-549 = experiment: Bioassay for apoptosis (apoptotic EC50); details: unit not given, in µg/mL
How it was run: as §2

Jurkat = experiment: Bioassay for apoptosis (apoptotic EC50); details: unit not given, in µg/mL
How it was run: as §2

MCF-7 = experiment: Bioassay for apoptosis (apoptotic EC50); details: MCF-7; unit not given; in µg/mL
How it was run: as §2

MDA-MB-435 = experiment: Bioassay for apoptosis (apoptotic EC50); details: MDA-MB-435; unit not given; in µg/mL
How it was run: as §2

MDA-MB-435 cells [3] = experiment: DNA synthesis arrest by 3H-uptake (Example 8); details: MDA-MB-435; 2% serum; 3H-uptake at one day treatment
Procedure: as §1

MCF-7 cells [4] = experiment: DNA synthesis arrest by 3H-uptake (Example 8); details: 5% serum, 3H-uptake at one day treatment
Procedure: as §1

Cc1c(C)c2c(c(C)c1OC(=O)CCC(=O)O)CC[C@@](C)(CCC[C@H](C)CCC[C@H](C)CCCC(C)C)O2 [VES, RRR-α-tocopherol succinate, reference compound]
EC50 (MDA-MB-435 cells [1]): 36 µM | EC50 (MCF-7 cells [2]): 40 µM | apoptotic EC50 (Ramos): 10-20 | apoptotic EC50 (LnCaP): 5-10 | apoptotic EC50 (DU-145): 10-20 | apoptotic EC50 (Myeloma): 10-20 | apoptotic EC50 (ME-180): 10-20 | apoptotic EC50 (MDA-MB-231): 5-10 | apoptotic EC50 (Raji): 10-20 | apoptotic EC50 (RL-95-2): 10-20 | apoptotic EC50 (PC-3): 10-20 | apoptotic EC50 (HL-60): 10-20 | apoptotic EC50 (HT-29): 5-10 | apoptotic EC50 (DLD-1): 10-20 | apoptotic EC50 (A-549): 20-30 | apoptotic EC50 (Jurkat): 10-20 | apoptotic EC50 (MCF-7): 10-20 | apoptotic EC50 (MDA-MB-435): 5-10 | EC50 (MDA-MB-435 cells [3]): 17 µM | EC50 (MCF-7 cells [4]): 22 µM
